In general, IC50 refers to the concentration at which inhibition is half-maximal.

Results on 21 compounds are retold here after US10662159B2, “ABHD6 and dual ABHD6/MGL inhibitors and their uses” (MAKScientific, LLC, priority 2017, dated 2020).

Common to all, as to format: biochemical
One experiment deals with Rat ΔTM FAAH (Rattus norvegicus (Rat), UniProt P97612). Briefly: Fluorescent assay for rat ΔTM FAAH (AAMCA substrate). The note with it: ΔTM rFAAH, AAMCA 20 μM; read-out: rFAAH Inhibition IC50. The protocol: Certain compounds were tested for their ABHD6 and dual ABHD6/MGL inhibitory activity, which is expressed as % of inhibition or IC50 values in Table 1. The percentage of inhibition describes the percentage by which the inhibitor reduces the velocity/rate of 2-AG hydrolysis by ABHD6, and MGL or AEA hydrolysis by FAAH. The IC50 is the concentration of the inhibitor, which results in 50% inhibition of the velocity/rate of 2-AG hydrolysis by ABHD6 or MGL. The IC50 is the concentration of the inhibitor, which results in 50% inhibition of the velocity/rate of AEA hydrolysis by FAAH. The lower the IC50 values, the higher its inhibitory activity. A detailed description of the methods used to test inhibitory activity of compounds is given below.
Example 79. Preparation of Transmembrane Domain-Deleted Rat FAAH (ΔTM rFAAH)
Rat ΔTM FAAH was expressed in E. coli cells and purified using the procedure disclosed by Patricelli et al. Biochemistry (1998) 37: 15177-15187.
Example 81. Fluorescent Assay Protocol for Rat ΔTM FAAH
The fluorescence reading at the 3 hour time point (linear enzyme kinetics) was used to calculate percent inhibition based on control assays without inhibitor present. All FAAH assays were performed in triplicate for each inhibitor concentration, and IC50 values determined using Prizm software (GraphPad Software, Inc.).

For a further experiment, the target named is hMGL (Homo sapiens (Human), UniProt Q99685). The experiment in a line: Fluorescent assay for hMGL (AHMMCE substrate hydrolysis). The note with it: E. coli lysate containing hMGL, read-out: hMGL Inhibition IC50. The method, then: (§1) Certain compounds were tested for their ABHD6 and dual ABHD6/MGL inhibitory activity, which is expressed as % of inhibition or IC50 values in Table 1. The percentage of inhibition describes the percentage by which the inhibitor reduces the velocity/rate of 2-AG hydrolysis by ABHD6, and MGL or AEA hydrolysis by FAAH. […] The lower the IC50 values, the higher its inhibitory activity. A detailed description of the methods used to test inhibitory activity of compounds is given below.
Preparation of Human MAGL (hMAGL)
Fluorescent Assay Protocol for hMGL
This medium throughput assay involved a 96-well plate format in which hMGL activity was monitored by the hydrolysis of the substrate […] (AHMMCE) to form the fluorescent product, coumarin. […] Upon the addition of AHMMCE, the reaction was incubated at 25° C. for 120 min; fluorescence readings were taken every 15 min at 360 nm/460 nm (λexcitation/λemission) using a Synergy HT Plate Reader (Bio-Tek, Winooski, Vt.). […] External standards were used to convert relative fluorescence units to the amount of 4-methylcoumarin formed. All MGL assays were performed in triplicate for each inhibitor concentration, and IC50 values were calculated using Prizm software (GraphPad Software, Inc., San Diego, Calif.).

The target in another experiment is hABHD6 (Homo sapiens (Human), UniProt Q9BV23). Briefly: Fluorescent assay for hABHD6 (AHMMCE substrate hydrolysis). The note with it: membrane fraction containing full-length hABHD6, 20 μM AHMMCE; read-out: ABHD6 Inhibition IC50. The method, then:
as §1
Fluorescent Assays Protocol for hABHD6
Initial Fluorescent Inhibition Assay (3-Point)—
In each well of a 96-well plate 8 μL of membrane fraction containing full-length hABHD6 (1 μg total protein) was mixed with 168 μL of assay buffer (50 mM Tris-HCl, pH 7.6), and 20 μL of diluted compound (diluted in a dilution buffer consisting of 50% DMSO/50% assay buffer v/v). Each plate was incubated at RT for 15 minutes before adding 4 μL of 1 mM AHMMCE substrate (final concentration of 20 μM AHMMCE and final volume of 200 μL). The reaction was allowed to proceed for 1 hr at RT before the fluorescence was read at λex 360 nm and λem 460 nm and the inhibition calculated. Each experiment can test 8 compounds at three concentrations (usually 10 μM, 1 μM, and 100 nM).
IC50 Determination Assay (8-Point)—
A more detailed assay with an extended range tests compounds over 8 concentrations depending on the pre-determined approximate IC50 value from the initial screen. […] The assay was conducted in 96 well plate with each well containing the same reaction mixture detailed above in the 3-point screen. The relative fluorescence is quantified into coumarin produced by using a standard curve of HMMC in triplicate on each plate. Results are normalized to the negative control wells and the IC50 is determined using a non-linear regression curve fit in Prism, version 5 (GraphPad, San Diego, Calif.).

Chain of Rat ΔTM FAAH (P97612 30-579): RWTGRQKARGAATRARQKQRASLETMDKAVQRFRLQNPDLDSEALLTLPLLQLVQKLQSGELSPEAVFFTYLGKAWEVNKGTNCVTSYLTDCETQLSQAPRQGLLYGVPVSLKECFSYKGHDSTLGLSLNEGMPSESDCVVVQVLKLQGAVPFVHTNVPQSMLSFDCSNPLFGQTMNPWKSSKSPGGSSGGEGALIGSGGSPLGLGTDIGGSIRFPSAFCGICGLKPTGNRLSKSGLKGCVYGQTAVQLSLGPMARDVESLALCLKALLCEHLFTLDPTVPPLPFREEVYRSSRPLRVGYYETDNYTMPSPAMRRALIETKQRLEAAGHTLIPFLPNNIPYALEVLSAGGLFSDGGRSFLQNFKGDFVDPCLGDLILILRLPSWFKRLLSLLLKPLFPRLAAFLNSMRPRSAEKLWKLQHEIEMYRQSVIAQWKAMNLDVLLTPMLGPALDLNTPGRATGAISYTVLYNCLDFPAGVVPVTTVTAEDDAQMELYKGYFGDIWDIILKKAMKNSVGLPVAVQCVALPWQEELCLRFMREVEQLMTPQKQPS
Chain of hMGL (Q99685 whole entry): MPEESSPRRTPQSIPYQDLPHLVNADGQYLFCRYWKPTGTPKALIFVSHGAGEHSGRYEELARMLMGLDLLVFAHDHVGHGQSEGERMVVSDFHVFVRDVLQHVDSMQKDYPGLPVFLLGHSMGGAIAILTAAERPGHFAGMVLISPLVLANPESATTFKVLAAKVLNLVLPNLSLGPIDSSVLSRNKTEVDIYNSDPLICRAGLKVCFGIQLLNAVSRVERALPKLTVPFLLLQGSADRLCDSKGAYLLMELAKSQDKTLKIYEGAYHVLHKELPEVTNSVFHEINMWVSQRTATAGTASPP
Chain of hABHD6 (Q9BV23 whole entry): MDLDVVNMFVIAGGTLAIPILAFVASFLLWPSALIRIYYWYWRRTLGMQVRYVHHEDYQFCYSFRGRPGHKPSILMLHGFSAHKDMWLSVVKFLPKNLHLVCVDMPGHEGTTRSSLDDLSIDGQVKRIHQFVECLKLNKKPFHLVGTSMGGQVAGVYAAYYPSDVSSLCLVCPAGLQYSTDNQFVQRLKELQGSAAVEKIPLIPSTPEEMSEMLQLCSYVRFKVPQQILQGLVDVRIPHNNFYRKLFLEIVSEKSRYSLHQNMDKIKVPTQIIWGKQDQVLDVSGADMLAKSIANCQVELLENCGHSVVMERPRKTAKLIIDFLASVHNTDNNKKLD

As for `O=C(OC(CF)CF)N1CCc2c(Br)cccc2C1` [Example 5, 1,3-Difluoropropan-2-yl 5-bromo-3,4-dihydroisoquinoline-2(1H)-carboxylate], the IC50 on Rat ΔTM FAAH, on hMGL and at hABHD6 was more than 1000 nM each time.
For the compound `COc1cccc2c1CCN(C(=O)OC(C(F)(F)F)C(F)(F)F)C2` [Example 22, 1,1,1,3,3,3-Hexafluoropropan-2-yl 5-methoxy-3,4-dihydroisoquinoline-2(1H)-carboxylate], the 50% inhibitory concentration (IC50) is more than 1000 nM at Rat ΔTM FAAH, more than 1000 nM at hMGL and 10 to 100 nM on hABHD6.
Turning to `COc1ccc2c(c1)CCN(C(=O)OC(C(F)(F)F)C(F)(F)F)C2` [Example 23, 1,1,1,3,3,3-Hexafluoropropan-2-yl 6-methoxy-3,4-dihydroisoquinoline-2(1H)-carboxylate], the IC50 is more than 1000 nM on Rat ΔTM FAAH, more than 1000 nM on hMGL and 10 to 100 nM at hABHD6.
Consider `O=C(OC(C(F)(F)F)C(F)(F)F)N1Cc2ccc(-c3ccccc3)cc2C1` [Example 25, 1,1,1,3,3,3-Hexafluoropropan-2-yl 5-phenylisoindoline-2-carboxylate], for which the half-inhibitory concentration (IC50) at Rat ΔTM FAAH was more than 1000 nM; on hMGL, more than 1000 nM; at hABHD6, 10 to 100 nM.
As to `O=C(OC(C(F)(F)F)C(F)(F)F)N1CCc2c(cccc2-c2ccccc2)C1` [Example 28, 1,1,1,3,3,3-Hexafluoropropan-2-yl 5-phenyl-3,4-dihydroisoquinoline-2(1H)-carboxylate], the IC50 on Rat ΔTM FAAH was more than 1000 nM; at hMGL it was more than 1000 nM; on hABHD6, 100 to 1000 nM.
Turning to `CN1CCN(c2ccc3c(c2)CN(C(=O)OC(C(F)(F)F)C(F)(F)F)C3)CC1` [Example 29, 1,1,1,3,3,3-Hexafluoropropan-2-yl 5-(4-methylpiperazin-1-yl)isoindoline-2-carboxylate], the IC50 at Rat ΔTM FAAH is more than 1000 nM; on hMGL it was more than 1000 nM; at hABHD6, 100 to 1000 nM.
For the compound `O=C(OC(C(F)(F)F)C(F)(F)F)N1Cc2ccc(N3CCCC3)cc2C1` [Example 30, 1,1,1,3,3,3-Hexafluoropropan-2-yl 5-(pyrrolidin-1-yl)isoindoline-2-carboxylate], the IC50 was more than 1000 nM at Rat ΔTM FAAH, more than 1000 nM at hMGL and 10 to 100 nM at hABHD6.
Take `O=C(OC(C(F)(F)F)C(F)(F)F)N1Cc2ccc(N3CCS(=O)(=O)CC3)cc2C1` [Example 31, 1,1,1,3,3,3-Hexafluoropropan-2-yl 5-(1,1-dioxidothiomorpholino)isoindoline-2-carboxylate]: the IC50 at Rat ΔTM FAAH is more than 1000 nM; on hABHD6 it was 10 to 100 nM.
As for `O=C(OC(C(F)(F)F)C(F)(F)F)N1Cc2ccc(N3CCOCC3)cc2C1` [Example 32, 1,1,1,3,3,3-Hexafluoropropan-2-yl 5-morpholinoisoindoline-2-carboxylate], the values for the IC50 on Rat ΔTM FAAH, on hMGL and on hABHD6 were more than 1000 nM, more than 1000 nM and 10 to 100 nM, respectively.
For the compound `CC1(C)C2C(=O)N(OC(=O)N3CCc4c(Br)cccc4C3)C(=O)C21` (centres unmarked) [Example 35, 6,6-Dimethyl-2,4-dioxo-3-azabicyclo[3.1.0]hexan-3-yl 5-bromo-3,4-dihydroisoquinoline-2(1H)-carboxylate], the IC50 on Rat ΔTM FAAH was more than 1000 nM; at hMGL, more than 1000 nM; on hABHD6 it was 10 to 100 nM.
Turning to `O=C1C2CC2C(=O)N1ON1CCc2c(Br)cccc2C1` (centres unmarked) [Example 37, 3-((5-Bromo-3,4-dihydroisoquinolin-2(1H)-yl)oxy)-3-azabicyclo[3.1.0]hexane-2,4-dione], the IC50 at Rat ΔTM FAAH is more than 1000 nM; at hMGL it was more than 1000 nM; on hABHD6, 100 to 1000 nM.
For `COc1ccc2c(c1)CN(C(=O)ON1C(=O)C3C(C1=O)C3(C)C)C2` (centres unmarked) [Example 38, 6,6-Dimethyl-2,4-dioxo-3-azabicyclo[3.1.0]hexan-3-yl 5-methoxyisoindoline-2-carboxylate], the IC50 at Rat ΔTM FAAH, at hMGL and on hABHD6 was more than 1000 nM throughout.
Turning to `CC1(C)C2C(=O)N(OC(=O)N3Cc4ccc(N5CCOCC5)cc4C3)C(=O)C21` (centres unmarked) [Example 39, 6,6-Dimethyl-2,4-dioxo-3-azabicyclo[3.1.0]hexan-3-yl 5-morpholinoisoindoline-2-carboxylate], the IC50 at Rat ΔTM FAAH was more than 1000 nM; on hMGL, more than 1000 nM; at hABHD6, 10 to 100 nM.
For `O=C(O[C@H](CO)C(F)(F)F)N1CCc2c(Br)cccc2C1` [Example 40, (R)-1,1,1-trifluoro-3-hydroxypropan-2-yl 5-bromo-3,4-dihydroisoquinoline-2(1H)-carboxylate], the IC50 was more than 1000 nM on Rat ΔTM FAAH, more than 1000 nM at hMGL and 10 to 100 nM on hABHD6.
`O=C(OC(C(F)(F)F)C(F)(F)F)N1CCc2c(cccc2OCCCF)C1` [Example 41, 1,1,1,3,3,3-Hexafluoropropan-2-yl 5-(3-fluoropropoxy)-3,4-dihydroisoquinoline-2(1H)-carboxylate]: the figures for the IC50 on Rat ΔTM FAAH, at hMGL and on hABHD6 were more than 1000 nM, more than 1000 nM and 10 to 100 nM, respectively.
For the compound `O=C(OC(C(F)(F)F)C(F)(F)F)N1Cc2ccc(OCCCF)cc2C1` [Example 42, 1,1,1,3,3,3-Hexafluoropropan-2-yl 5-(3-fluoropropoxy)isoindoline-2-carboxylate], the IC50 on Rat ΔTM FAAH was more than 1000 nM; on hMGL it was more than 1000 nM; at hABHD6 it was 10 to 100 nM.
Regarding `O=C(OC(C(F)(F)F)C(F)(F)F)N1Cc2ccc(OCC3CC3)cc2C1` [Example 43, 1,1,1,3,3,3-Hexafluoropropan-2-yl 5-(cyclopropylmethoxy)isoindoline-2-carboxylate], the IC50 was more than 1000 nM on Rat ΔTM FAAH, more than 1000 nM on hMGL and 10 to 100 nM on hABHD6.
On to `O=C(OC(C(F)(F)F)C(F)(F)F)N1Cc2ccc(OCCN3CCOCC3)cc2C1` [Example 44, 1,1,1,3,3,3-Hexafluoropropan-2-yl 5-(2-morpholinoethoxy)isoindoline-2-carboxylate], for which the IC50 is more than 1000 nM on Rat ΔTM FAAH, more than 1000 nM on hMGL and 100 to 1000 nM on hABHD6.
Regarding `CN(C)CCOc1ccc2c(c1)CN(C(=O)OC(C(F)(F)F)C(F)(F)F)C2` [Example 46, 1,1,1,3,3,3-Hexafluoropropan-2-yl 5-(2-(dimethylamino)ethoxy)isoindoline-2-carboxylate], the IC50 on Rat ΔTM FAAH was more than 1000 nM; at hMGL, 10 to 100 nM; at hABHD6 it was 10 to 100 nM.
In the case of `O=C(OC(C(F)(F)F)C(F)(F)F)N1Cc2ccc(NCCN3CCOCC3)cc2C1` [Example 47, 1,1,1,3,3,3-Hexafluoropropan-2-yl 5-((2-morpholinoethyl)amino)isoindoline-2-carboxylate], the IC50 at Rat ΔTM FAAH was more than 1000 nM; on hMGL it was more than 1000 nM; at hABHD6, 10 to 100 nM.
As to `O=C(OC(C(F)(F)F)C(F)(F)F)N1Cc2ccc(OCCN3CCCCC3)cc2C1` [Example 48, 1,1,1,3,3,3-Hexafluoropropan-2-yl 5-(2-(piperidin-1-yl)ethoxy)isoindoline-2-carboxylate], the IC50 was more than 1000 nM on Rat ΔTM FAAH, 10 to 100 nM on hMGL and 10 to 100 nM at hABHD6.
